According to US7229782B1, “Antibodies specific to multiple beta blockers and methods for their use” (LabOne, Inc., priority 2004, dated 2007):

tested on: antibody of the present invention; test: Interference from other drugs, homogeneous enzyme immunoassay; type: binding, rabbit; conditions: chemical at 10.0 μg/ml urine; cutoff 5.0 μg Atenolol per ml of urine; tested three times
Description: Samples were checked for turbidity and growth. A homogeneous enzyme immunoassay was carried out on an Olympus AU-5200 analyzer using the following assay parameters:
Reagent 1 is comprised of a titer of 1–500 dilution of an antibody of the present invention, 11.25 mM NAD+, 11.25 mM G6P, 0.1% w/v sodium azide and 100 mM Tris.
Reagent 2 is comprised of a titer of 1–2000 dilution of a G6PDH-beta blocker conjugate, 0.1% w/v sodium azide, and 50 mM Tris.
A homogenous calibrator containing sodium azide was used to calibrate the analyzer prior to each run.
The analytical cutoff for the test was set at 5.0 μg Atenolol per ml of urine. The result was scored as a positive if the signal strength was greater than that produced by 5.0 μg Atenolol per ml of urine.
Interference from other drugs was tested using fifty-five (55) frequently used chemicals and medicines, at concentrations of 10.0 μg/ml urine.
The samples were tested three times, following the procedures used in Example 3.

Compound	Beta-Blocker Pos./Neg.
CN1[C@H]2CC[C@@H]1[C@@H](C(=O)O)[C@@H](OC(=O)c1ccccc1)C2 [Benzoylecgonine]	Neg. (scored as a positive if the signal strength was greater than that produced by 5.0 μg Atenolol per ml of urine)
CN(C)CCCN1c2ccccc2CCc2ccccc21 [Imipramine]	Neg. (scored as a positive if the signal strength was greater than that produced by 5.0 μg Atenolol per ml of urine)
Penicillin	Neg. (scored as a positive if the signal strength was greater than that produced by 5.0 μg Atenolol per ml of urine)
CC(N)C(O)c1ccccc1 (stereo not drawn) [Phenylpropanolamine]	Neg. (scored as a positive if the signal strength was greater than that produced by 5.0 μg Atenolol per ml of urine)
CN1C(=O)CC[C@H]1c1cccnc1 [(−)-Cotinine]	Neg. (scored as a positive if the signal strength was greater than that produced by 5.0 μg Atenolol per ml of urine)
CN[C@@H](C)[C@@H](O)c1ccccc1 [Pseudoephedrine]	Neg. (scored as a positive if the signal strength was greater than that produced by 5.0 μg Atenolol per ml of urine)
CCN(CC)CCOC(=O)c1ccc(N)cc1 [Procaine]	Neg. (scored as a positive if the signal strength was greater than that produced by 5.0 μg Atenolol per ml of urine)
CN(C)CCCN1c2ccccc2Sc2ccc(Cl)cc21 [Chlorpromazine]	Neg. (scored as a positive if the signal strength was greater than that produced by 5.0 μg Atenolol per ml of urine)
CC(C)Cc1ccc(C(C)C(=O)O)cc1 (stereo not drawn) [Ibuprofen]	Neg. (scored as a positive if the signal strength was greater than that produced by 5.0 μg Atenolol per ml of urine)
COc1ccc2cc([C@H](C)C(=O)O)ccc2c1 [Naproxen]	Neg. (scored as a positive if the signal strength was greater than that produced by 5.0 μg Atenolol per ml of urine)
PCP	Neg. (scored as a positive if the signal strength was greater than that produced by 5.0 μg Atenolol per ml of urine)
C[C@H](N)Cc1ccccc1 [Amphetamine (D-)]	Neg. (scored as a positive if the signal strength was greater than that produced by 5.0 μg Atenolol per ml of urine)
C=CCN1CC[C@]23c4c5ccc(O)c4O[C@H]2[C@@H](O)C=C[C@H]3[C@H]1C5 [Nalorphine]	Neg. (scored as a positive if the signal strength was greater than that produced by 5.0 μg Atenolol per ml of urine)
NC(=O)c1cccnc1 [Niacinamide]	Neg. (scored as a positive if the signal strength was greater than that produced by 5.0 μg Atenolol per ml of urine)
CN[C@@H](C)[C@H](O)c1ccccc1 [Ephedrine (L-)]	Neg. (scored as a positive if the signal strength was greater than that produced by 5.0 μg Atenolol per ml of urine)
COc1ccc2c3c1O[C@H]1C(=O)CC[C@H]4[C@@H](C2)N(C)CC[C@]314 [Hydrocodone]	Neg. (scored as a positive if the signal strength was greater than that produced by 5.0 μg Atenolol per ml of urine)
Ecgonine Hydrochloride	Neg. (scored as a positive if the signal strength was greater than that produced by 5.0 μg Atenolol per ml of urine)
COc1ccc2c3c1O[C@H]1[C@@H](O)C=C[C@H]4[C@@H](C2)N(C)CC[C@@]341 [Codeine]	Neg. (scored as a positive if the signal strength was greater than that produced by 5.0 μg Atenolol per ml of urine)
Cc1nnc2n1-c1ccc(Cl)cc1C(c1ccccc1)=NC2 [Alprazolam]	Neg. (scored as a positive if the signal strength was greater than that produced by 5.0 μg Atenolol per ml of urine)
Cc1cc(CC(=O)O)n(C)c1C(=O)c1ccc(Cl)cc1 [Zomepirac]	Neg. (scored as a positive if the signal strength was greater than that produced by 5.0 μg Atenolol per ml of urine)
O=C1CN=C(c2ccccc2Cl)c2cc([N+](=O)[O-])ccc2N1 [Clonazepam]	Neg. (scored as a positive if the signal strength was greater than that produced by 5.0 μg Atenolol per ml of urine)
CCC(=O)C(CC(C)N(C)C)(c1ccccc1)c1ccccc1 (racemic) [Methadone (DL-)]	Neg. (scored as a positive if the signal strength was greater than that produced by 5.0 μg Atenolol per ml of urine)
CCCC(C)C1(CC)C(=O)NC(=O)NC1=O (stereo not drawn) [Pentobarbital]	Neg. (scored as a positive if the signal strength was greater than that produced by 5.0 μg Atenolol per ml of urine)

Compound	Beta-Blocker Pos./Neg.
CC1(C)S[C@@H]2[C@H](NC(=O)[C@H](N)c3ccccc3)C(=O)N2[C@H]1C(=O)O [Ampicillin]	Neg. (scored as a positive if the signal strength was greater than that produced by 5.0 μg Atenolol per ml of urine)
O=C(O)c1cc(O)ccc1O [Gentisic Acid]	Neg. (scored as a positive if the signal strength was greater than that produced by 5.0 μg Atenolol per ml of urine)
NCCc1ccccc1 [Phenethylamine (beta-)]	Neg. (scored as a positive if the signal strength was greater than that produced by 5.0 μg Atenolol per ml of urine)
CNC[C@H](O)c1cccc(O)c1 [Phenylephrine]	Neg. (scored as a positive if the signal strength was greater than that produced by 5.0 μg Atenolol per ml of urine)
Cn1c(=O)c2[nH]cnc2n(C)c1=O [Theophylline]	Neg. (scored as a positive if the signal strength was greater than that produced by 5.0 μg Atenolol per ml of urine)
(−)-11-NOR-9-Carboxy-Delta9-THC	Neg. (scored as a positive if the signal strength was greater than that produced by 5.0 μg Atenolol per ml of urine)
COc1ccc2c(c1)[C@]13CCCC[C@@H]1[C@H](C2)N(C)CC3 [Dextromethorphan]	Neg. (scored as a positive if the signal strength was greater than that produced by 5.0 μg Atenolol per ml of urine)
c1ccc(C2(N3CCCCC3)CCCCC2)cc1 [Phencyclidine]	Neg. (scored as a positive if the signal strength was greater than that produced by 5.0 μg Atenolol per ml of urine)
Cc1ccc(C)c(OCCCC(C)(C)C(=O)O)c1 [Gemfibrozil]	Neg. (scored as a positive if the signal strength was greater than that produced by 5.0 μg Atenolol per ml of urine)
CCN(CC)CC(=O)Nc1c(C)cccc1C [Lidocaine]	Neg. (scored as a positive if the signal strength was greater than that produced by 5.0 μg Atenolol per ml of urine)
CC(=O)Oc1ccccc1C(=O)O [Acetylsalicylic Acid]	Neg. (scored as a positive if the signal strength was greater than that produced by 5.0 μg Atenolol per ml of urine)
CCOC(=O)[C@@H]1C2CCC(C[C@@H]1OC(=O)c1ccccc1)N2C (stereo partly drawn) [Cocainethylene]	Neg. (scored as a positive if the signal strength was greater than that produced by 5.0 μg Atenolol per ml of urine)
CN[C@@H](C)Cc1ccccc1 [Methamphetamine (D-)]	Neg. (scored as a positive if the signal strength was greater than that produced by 5.0 μg Atenolol per ml of urine)
C=C[C@H]1C[N@@]2CC[C@H]1C[C@@H]2[C@@H](O)c1ccnc2ccc(OC)cc12 [Quinidine]	Neg. (scored as a positive if the signal strength was greater than that produced by 5.0 μg Atenolol per ml of urine)
C=CCC1(CC(C)C)C(=O)NC(=O)NC1=O [Butalbital]	Neg. (scored as a positive if the signal strength was greater than that produced by 5.0 μg Atenolol per ml of urine)
CC(C(=O)O)c1cccc(Oc2ccccc2)c1 (stereo not drawn) [Fenoprofen]	Neg. (scored as a positive if the signal strength was greater than that produced by 5.0 μg Atenolol per ml of urine)
CN1C(=O)C(O)N=C(c2ccccc2)c2cc(Cl)ccc21 (stereo not drawn) [Temazepam]	Neg. (scored as a positive if the signal strength was greater than that produced by 5.0 μg Atenolol per ml of urine)
Cn1c(=O)c2c(ncn2C)n(C)c1=O [Caffeine]	Neg. (scored as a positive if the signal strength was greater than that produced by 5.0 μg Atenolol per ml of urine)
CN[C@@H](C)[C@H](O)c1ccccc1.Cl [Ephedrine Hydrochloride (1R,2S)-(−)]	Neg. (scored as a positive if the signal strength was greater than that produced by 5.0 μg Atenolol per ml of urine)
CCN(CC)CCNC(=O)c1ccc(N)cc1 [Procainamide]	Neg. (scored as a positive if the signal strength was greater than that produced by 5.0 μg Atenolol per ml of urine)
O=C(O)C1N=C(c2ccccc2)c2cc(Cl)ccc2NC1=O (stereo not drawn) [Clorazepate]	Neg. (scored as a positive if the signal strength was greater than that produced by 5.0 μg Atenolol per ml of urine)
COC(=O)[C@@H]1[C@H]2CC[C@@H](C[C@@H]1O)N2C.Cl [Ecgonine Methyl Ester Hydrochloride]	Neg. (scored as a positive if the signal strength was greater than that produced by 5.0 μg Atenolol per ml of urine)
